Experiment [1] addresses T1, Kir3.1/4 channel (Homo sapiens, UniProt P48544+P48549).
T1 sequence (P48549 1-501): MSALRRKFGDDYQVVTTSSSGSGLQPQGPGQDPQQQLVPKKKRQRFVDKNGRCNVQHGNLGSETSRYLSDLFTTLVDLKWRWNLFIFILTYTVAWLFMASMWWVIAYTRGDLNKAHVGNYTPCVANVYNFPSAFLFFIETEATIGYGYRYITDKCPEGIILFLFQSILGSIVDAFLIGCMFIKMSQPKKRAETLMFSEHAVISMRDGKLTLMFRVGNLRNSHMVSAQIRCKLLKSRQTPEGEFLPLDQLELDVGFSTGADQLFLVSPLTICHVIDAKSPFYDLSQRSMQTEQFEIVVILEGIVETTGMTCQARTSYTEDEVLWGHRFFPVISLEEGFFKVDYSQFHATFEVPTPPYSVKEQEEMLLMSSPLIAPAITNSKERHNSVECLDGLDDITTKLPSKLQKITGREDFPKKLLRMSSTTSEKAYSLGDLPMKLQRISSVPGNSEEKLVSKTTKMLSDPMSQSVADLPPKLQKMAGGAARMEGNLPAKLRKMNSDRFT
T1 sequence (P48544 1-419): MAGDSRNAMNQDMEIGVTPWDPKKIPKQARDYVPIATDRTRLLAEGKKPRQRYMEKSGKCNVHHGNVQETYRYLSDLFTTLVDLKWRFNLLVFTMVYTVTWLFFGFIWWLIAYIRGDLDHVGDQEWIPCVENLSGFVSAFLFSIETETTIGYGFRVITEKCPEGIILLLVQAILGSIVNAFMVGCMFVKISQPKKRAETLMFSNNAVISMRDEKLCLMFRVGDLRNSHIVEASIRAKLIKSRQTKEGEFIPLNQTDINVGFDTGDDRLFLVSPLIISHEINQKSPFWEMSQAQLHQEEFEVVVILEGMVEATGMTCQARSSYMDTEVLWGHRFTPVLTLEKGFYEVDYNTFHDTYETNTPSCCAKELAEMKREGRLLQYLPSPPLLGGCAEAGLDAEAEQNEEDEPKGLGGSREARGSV
Description: TEVC in Xenopus oocytes, Kir3.1/4. It counts as cell-based. Also on record: expressed in transfected cells; host or cells: Xenopus laevis oocytes (cRNA injection). As to the method:
X. laevis oocytes were isolated and microinjected as previously described ([6]). Human Kir3.1, mouse Kir3.2, and human Kir3.4 DNA constructs were used for electrophysiology experiments. All cRNA constructs were injected in the amount of 2 ng per oocyte. Injected oocytes were incubated for 2 to 3 days at 18 °C to allow for expression. Whole-cell oocyte currents were then measured using a GeneClamp 500 amplifier (Axon Instruments). Microelectrodes had resistances of 0.5 to 1 megohm using a 3M KCl solution in 1.4% agarose. Oocytes were perfused with a low K^+ (LK) solution ND96 (2 mM KCl, 96 mM NaCl, 1 mM MgCl2, 1.8 mM CaCl2, 5 mM HEPES-Na) to establish a baseline for the recordings. Basal current was measured in a high potassium (HK) solution ND96K (96 mM KCl, 10 mM HEPES-K, 1 mM MgCl2, 1.8 mM CaCl2). To block the current, the oocyte chamber was perfused with 4 mM BaCl2 in ND96K. Only the Barium-sensitive current was used for statistical analysis. To measure the inhibitory activity of the channels, 1 μM BP-G1 in ND96K (HK) was used. Typically, oocytes were held at 0 mV (EK) and the current was monitored constantly using a ramp protocol with a command potential from −80 to +80 mV. Current amplitude was measured at the end of a 1 s sweep. All currents were analyzed when they reached steady state. Error bars in the figures represent SD (N > 4).

Experiment [2] has as its target Kv1.7 (Homo sapiens, UniProt Q96RP8). Description: Cloned cardiac ion channel electrophysiology, Kv1.7. The format is cell-based. As to the method:
Table S7-1. Table detailing composition (in mM) of external experimental assay solutions […]
%Inhibition = (1 − IIntervention/IControl) × 100
Equation 1 – Percentage Inhibition
Inhibition of current (or leak-subtracted current) was calculated from steady-state current recorded in the absence (IControl) and presence of test-article (IIntervention).
Equation 2 – Concentration-response curve
Concentration-response data were fitted with a sigmoidal function of the form above, where YMin and YMax represent maximum and minimum current inhibition which were constrained to 100 and 0 respectively and x is the Log[DRUG (M)] based on GraphPad Prism analysis. % inhibition was calculated as in Equation 1.
(also on this page, place not known: […] […] + −+= − HnxLogIC MinMax Min YYYInhibition )( 50101 )(% inhi bition Log[ DRUG analysis .) […]

In experiment [3] the target is Nav1.5 (Homo sapiens, UniProt Q14524). The experiment can be described thus: Cloned cardiac ion channel manual patch clamp, Nav1.5. It counts as cell-based. As to conditions: 1Hz; MPC (manual patch clamp). As to the method:
For the data shown in Table S6, HEK293 cells expressing Kir3.1/4, Kir6.2/SUR2A (provided by Dr Andrew Tinker), Kir3.4, Kir2.1, and CHO cell lines stably expressing hERG KV1.5, KV4.3, NaV1.5 were maintained in media containing 10% FCS and appropriate selection antibiotic. Cells were grown either in suspension or in T-flasks and routinely passaged. Cells for patch clamping experiments were plated onto glass cover slips prior to use. Cells for automated patch clamping experiments were freshly prepared on each experimental day.
Standard giga-seal whole-cell patch-clamp techniques were performed at room temperature using glass pipettes (2–5 MΩ). HEKA EPC9/10 amplifiers and Pulse software were used for data acquisition. Series resistance was compensated by >70%. Experimental solutions are given under Supporting information. […]
Ionic current recordings were analyzed using HEKA software. […]
Inhibition of current (or leak-subtracted current) was calculated from steady-state current recorded in the absence (IControl) and presence of test-article (IIntervention). […]
Concentration-response data were fitted with a sigmoidal function of the form above, where YMin and YMax represent maximum and minimum current inhibition which were constrained to 100 and 0 respectively and x is the Log[DRUG (M)] based on GraphPad Prism analysis. % inhibition was calculated as in Equation 1. […]
In general terms: The patch-clamp technique gives a direct electrical read-out from membranes.

Experiment [4] has as its target T2, Non-steroid nuclear receptors PPARγ (Homo sapiens, UniProt P37231).
T2 construct: purchased; host or cells: E. coli
The experiment can be described thus: Radioligand binding, [3H]rosiglitazone. The settings on record: read-out: % Specific Binding at 10 µM.

This note sets out measurements from publication PMC8086025, “A benzopyran with antiarrhythmic activity is an inhibitor of Kir3.1-containing potassium channels” (The Journal of Biological Chemistry, 2021).

Where “and” joins values, the source holds several entries; their conditions need not be identical. Equal entries are not always repeated.

Sequence of Nav1.5 (Q14524 whole entry): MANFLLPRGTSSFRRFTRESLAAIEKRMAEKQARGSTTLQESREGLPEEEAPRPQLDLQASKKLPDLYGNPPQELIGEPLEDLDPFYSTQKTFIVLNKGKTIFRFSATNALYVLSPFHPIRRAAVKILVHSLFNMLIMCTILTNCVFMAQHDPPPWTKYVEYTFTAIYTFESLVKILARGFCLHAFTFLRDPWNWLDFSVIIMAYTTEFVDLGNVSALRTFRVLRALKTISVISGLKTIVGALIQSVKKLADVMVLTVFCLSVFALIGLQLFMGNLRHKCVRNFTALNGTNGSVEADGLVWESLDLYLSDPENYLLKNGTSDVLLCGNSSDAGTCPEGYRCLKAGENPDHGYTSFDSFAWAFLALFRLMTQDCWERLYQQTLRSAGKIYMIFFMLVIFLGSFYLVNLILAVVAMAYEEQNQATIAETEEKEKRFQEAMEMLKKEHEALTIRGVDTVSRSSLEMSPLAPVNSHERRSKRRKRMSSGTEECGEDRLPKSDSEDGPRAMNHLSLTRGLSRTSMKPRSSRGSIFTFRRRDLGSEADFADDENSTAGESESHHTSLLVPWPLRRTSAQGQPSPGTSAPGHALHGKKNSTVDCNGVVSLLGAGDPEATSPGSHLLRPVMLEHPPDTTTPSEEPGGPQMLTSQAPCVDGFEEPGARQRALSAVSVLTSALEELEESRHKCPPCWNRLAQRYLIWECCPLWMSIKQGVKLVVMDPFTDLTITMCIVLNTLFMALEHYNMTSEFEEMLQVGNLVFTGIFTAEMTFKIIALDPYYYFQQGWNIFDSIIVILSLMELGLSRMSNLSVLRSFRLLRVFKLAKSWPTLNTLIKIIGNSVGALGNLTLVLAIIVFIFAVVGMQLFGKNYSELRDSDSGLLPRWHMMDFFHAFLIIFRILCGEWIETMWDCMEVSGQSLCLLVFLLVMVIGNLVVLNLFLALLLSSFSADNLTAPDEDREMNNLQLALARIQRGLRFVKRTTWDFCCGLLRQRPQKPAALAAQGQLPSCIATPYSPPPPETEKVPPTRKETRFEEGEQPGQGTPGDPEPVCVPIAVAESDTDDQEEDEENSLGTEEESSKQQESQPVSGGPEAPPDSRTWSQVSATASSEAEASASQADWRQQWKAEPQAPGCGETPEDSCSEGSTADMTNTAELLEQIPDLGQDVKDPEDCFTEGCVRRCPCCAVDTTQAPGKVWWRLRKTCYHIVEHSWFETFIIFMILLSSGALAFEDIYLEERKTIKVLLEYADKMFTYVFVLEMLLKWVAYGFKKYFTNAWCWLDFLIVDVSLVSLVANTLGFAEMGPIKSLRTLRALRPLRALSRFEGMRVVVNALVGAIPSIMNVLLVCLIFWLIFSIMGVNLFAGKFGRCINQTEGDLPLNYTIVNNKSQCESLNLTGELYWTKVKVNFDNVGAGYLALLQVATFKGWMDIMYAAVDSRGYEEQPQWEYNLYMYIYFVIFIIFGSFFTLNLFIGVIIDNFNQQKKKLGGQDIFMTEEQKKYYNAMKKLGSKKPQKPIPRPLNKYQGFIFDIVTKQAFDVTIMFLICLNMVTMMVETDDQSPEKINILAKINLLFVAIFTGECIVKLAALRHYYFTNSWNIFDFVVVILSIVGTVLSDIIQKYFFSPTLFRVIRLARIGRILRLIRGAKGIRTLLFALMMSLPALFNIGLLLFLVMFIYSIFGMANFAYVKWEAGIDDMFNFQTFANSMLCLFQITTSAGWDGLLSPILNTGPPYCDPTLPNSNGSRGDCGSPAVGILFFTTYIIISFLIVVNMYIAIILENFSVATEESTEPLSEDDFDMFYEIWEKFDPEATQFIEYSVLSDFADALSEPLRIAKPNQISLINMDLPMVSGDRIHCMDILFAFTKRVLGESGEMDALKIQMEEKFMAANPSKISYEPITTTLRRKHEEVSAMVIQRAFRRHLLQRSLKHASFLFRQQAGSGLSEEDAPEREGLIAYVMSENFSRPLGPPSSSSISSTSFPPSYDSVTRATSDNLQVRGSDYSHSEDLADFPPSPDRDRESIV
T2 sequence (P37231 whole entry): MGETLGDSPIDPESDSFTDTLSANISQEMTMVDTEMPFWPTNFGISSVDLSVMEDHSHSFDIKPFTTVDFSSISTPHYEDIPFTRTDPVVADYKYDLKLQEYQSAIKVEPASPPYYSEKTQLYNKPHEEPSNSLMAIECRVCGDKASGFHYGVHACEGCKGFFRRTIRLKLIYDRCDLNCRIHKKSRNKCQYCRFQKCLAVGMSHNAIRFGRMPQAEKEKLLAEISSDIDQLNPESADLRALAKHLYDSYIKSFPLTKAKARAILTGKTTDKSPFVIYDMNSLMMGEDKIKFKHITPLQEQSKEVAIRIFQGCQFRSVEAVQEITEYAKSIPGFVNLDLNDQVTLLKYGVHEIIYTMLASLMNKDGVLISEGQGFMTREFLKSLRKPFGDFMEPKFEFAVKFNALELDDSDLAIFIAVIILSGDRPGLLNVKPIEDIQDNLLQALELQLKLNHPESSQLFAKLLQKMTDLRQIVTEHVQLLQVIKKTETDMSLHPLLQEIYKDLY
Sequence of Kv1.7 (Q96RP8 whole entry): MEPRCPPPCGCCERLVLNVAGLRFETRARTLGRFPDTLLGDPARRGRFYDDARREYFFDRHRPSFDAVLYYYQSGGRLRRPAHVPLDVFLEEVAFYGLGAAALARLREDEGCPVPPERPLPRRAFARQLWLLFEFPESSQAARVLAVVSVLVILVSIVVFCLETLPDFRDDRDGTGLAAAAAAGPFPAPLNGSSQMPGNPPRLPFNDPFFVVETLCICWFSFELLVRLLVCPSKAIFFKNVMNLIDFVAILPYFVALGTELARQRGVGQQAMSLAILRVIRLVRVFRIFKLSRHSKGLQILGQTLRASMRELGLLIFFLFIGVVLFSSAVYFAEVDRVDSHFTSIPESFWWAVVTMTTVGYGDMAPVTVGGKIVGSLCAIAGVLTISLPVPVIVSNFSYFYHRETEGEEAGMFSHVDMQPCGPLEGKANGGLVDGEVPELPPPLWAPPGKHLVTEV

`Cc1cc(CO)nc2cc3c(cc12)OC(C)(C)[C@H](O)[C@H]3NCCc1ccccc1` [BP-G1, (3R,4S)-7-(hydroxymethyl)-2,2,9-trimethyl-4-(2-phenylethylamino)-3,4-dihydropyrano[2,3-g]quinolin-3-ol]: the “current block, wild-type Kir3.1/4” value in experiment [1] (1 μM, TEVC) is recorded as 75 to 80%. Also, the IC50 in experiment [1] (TEVC oocyte experiments, read-out: IC50, inhibition of Kir3.1/4) was 0.055 µM and 0.0559 µM; in experiment [2] it was 7 µM; in experiment [3], greater than 10 µM. Moreover, the inhibition at 10 µM in experiment [4] was less than 50%.
